This data set relates to NMFI female mice. The data set is described as follows: toxicity of the dipeptide by injection to mice. In kind it is in vivo. The conditions noted are these: 100 μg per kg bodyweight, test solution 4 mg/ml in 0.9% NaCl. On the procedure: The dipeptide of Example 13 was diluted in 0.9% NaCl) to a test solution concentration of 4 mg/ml. The peptide was administered by injection to NMFI female mice in a dose of 100 μg per kg bodyweight.

Bridge positions count the residues as written; N and C are the ends. Ends that are not written are not given here. I, II: the chains in the order shown.

With “I: WIIPGLNPLVGGGKLYSPTSILCG-NH2 / II: KALGPGATLQTPWTACQGVG-NH2 (disulfide I:23-II:16) [Example 13]”, the toxicological effects entry is reported as “No toxicological effects were observed”.

Source of the values: patent US7709004B2, “Method of producing an HIV-1 immune response” (Bionor Immuno AS, priority 1999, dated 2010).
